Usually pIC50 stands for the IC50 on a negative log10 scale, so that one unit is a factor of ten. The low end stands for a large IC50, the high end for a small IC50.

The nature of data set [1]: Dissolution of compound in molten PEG. It counts as physicochemical. The settings on record: PEG 3350 and PEG 8000 melted at about 60° C. to 95° C. The text has this:
The present inventors have discovered that certain active agents have a higher solubility in the presence of PEG than in water. […] This pellet forms a colloidal like suspension when the pellet dissolves in water. Furthermore, using blends of high and low molecular weight PEGs can make erodible gel with the compound uniformly dispersed in it (see examples). This provides an injection dosage form for delivery of insoluble compounds via posterior juxtascleral or intravitreal administration, which enhances the solubility of the compounds and achieves the desired bioavailability. In the formulations of the present invention, the compound forms a solid solution in the matrix of the PEG.

For a further data set, the system named is FGFR. The data set can be described thus: Cell-free enzymatic kinase inhibition assay, FGFR. As to conditions: 1 mM ATP. The class given is biochemical.

The structures appear in SMILES notation. pIC50: −log10 of the molar value.

With `Cc1ccc(F)c(NC(=O)Nc2ccc(-c3cccc4[nH]nc(N)c34)cc2)c1` [RTK Inhibitor, N-[4-(3-amino-1H-indazol-4-yl)phenyl]-N′-(2-fluoro-5-methylphenyl)urea], the “Solubility in PEG” value in data set [1] is given as “dissolve completely”. Further, in the data set on FGFR, the negative logarithm of the IC50 (pIC50) was less than 4.90.
